System: cortical neurons
Experiment: neurite growth of embryonic mouse neurons (total neurite length/neuron, MAP2 immunostaining)
Type: cell-based
Experimental: To obtain embryonic mouse neurons for analysis, pregnant female mice were killed by cervical dislocation after exposure to CO2 inhalation. Embryonic neurons were prepared from E18 or P0 mouse hippocampi or cortex and cultured as described previously (Calderon and Kim, J. Neurochem., 90(4):979-88 (2004), errata in J Neurochem., September; 90(6):1540 (2004)), with slight modification. Briefly, hippocampi or cotices were dissected and dissociated by a method using either 0.25% trypsin (Gibco Invitrogen Corporation, Grand Island, N.Y.) in Hank's balanced salt solution (HBSS) or papain (20-30 U/mL) in dissociation media containing cysteine at 37° C. for 15 min. After the dissociation solution was aspirated off, cells were washed with same volume of HBSS, suspended in neurobasal medium (Gibco) containing 2% B27 supplement (Gibco), 1% glutamine/glutamax mix (1:4) (Gibco), 100 U/ml penicillin (Gibco) and 100 μg/ml streptomycin (Gibco), and seeded on poly-D-lysine chambered slides (Lab-Tek, Naperville, Ill.) at a density of 30,000 cells/cm^2. On the second day after seeding, the cells were treated with fatty acids, synaptamide or one of Compounds 1-50 for 48 h. Docosahexaenoic acid (DHA) and oleic acid (OA) were complexed with fatty acid-free bovine serum albumin (BSA; Sigma, St Louis, Mo.) in the presence of α-tocopherol (Sigma) under an argon atmosphere and darkness to prevent oxidation of the fatty acids. The mixture was mixed with fresh Neurobasal medium containing B27 supplement, glutamine/glutamax mix and antibiotics. Final concentrations of α-tocopherol and BSA in the culture medium were 40 μM and 0.01%, respectively. Alternatively, DHA, OA, synaptamide, or one of Compounds 1-50 were dissolved in DMSO and applied directly together with α-tocopherol. In such case, the final concentration of DMSO is less than 0.005%. All stock solutions were aliquoted under argon and stored at −70° C.
Cells were fixed with […] (Sigma) in PBS (pH 7.4) for 30 min. After permeabilization with 0.1% Triton X-100 (Sigma), cells were blocked for 1 h at 37° C. with PBS containing 10% goat serum (Gibco), and then incubated with the primary antibody against microtubule-associated protein (MAP2, mouse monoclonal 1:250; Sigma). After washing with PBS, cells were incubated with the corresponding Cy2-, Cy3-conjugated secondary antibody (Jackson Immunoresearch Laboratories Inc., West Grove, Pa.). For the nuclear staining, 0.06% 4,6-Diamidino-2-Phenylindole (Sigma) was used. After immunostaining, images were collected using an inverted motorized 1×81 Olympus (Melville, N.Y.) and the neurite length was analyzed with Metamorph software (Molecular Devices Corporation, Downingtown, Pa.). To minimize bias, neurons were evaluated blindly without the knowledge of sample identity. Four to six fields/well were chosen at random and only non-clustered neurons were evaluated to ensure the precision of the measurements. From each well, over 100 neurons were evaluated at 20× magnification for total neurite length/neuron. The data were obtained from triplicate wells and the experiments were repeated at least three times.
FIG. 2 provides graphical results of the data shown in Table 2, expressed as total neurite length per neuron. FIG. 3 provides graphical results of these experiments for compounds 11-50 (having designations as provided in Table 1, above), expressed as relative neurite length as compared to untreated controls. FIG. 4 provides graphical results of these experiments for compounds 1-10 (having designations as provided in Table 1, above), as applied to hippocampal neurons.
An additional assay was performed in which Compounds (A8), 4(A10), and 7(A9) were applied at varying dosages (from 10^−5 nM to 10 nM; 10^−5 nM, 10^−4 nM, 10^−2 nM, 0.1 nM, 1 nM, and 10 nM) as compared to DHA, synaptamide, and oleic acid. Neurite growth was measured at each dosage. Results of this assay are provided at FIG. 1.

CC/C=C\C/C=C\C/C=C\C/C=C\C/C=C\C/C=C\CCC(=O)NCC(C)(C)O [Compound 1, (4Z,7Z,10Z,13Z,16Z,19Z)—N-(2-hydroxy-2-methylpropyl)docosa-4,7,10,13,16,19-hexaenamide]
Neurite Length/Neuron (mean) (cortical neurons, 10 nM (FIG. 2), 48 h): 41.3 μm | effect with respect to cortical neurite growth as compared to DHA (cortical neurons, FIGS. 1, 2): superior effect | dosage at which activity is exhibited as compared to DHA and synaptamide (dosages 10^-5 nM to 10 nM, FIG. 1): activity at significantly lower dosages
